Experimental findings from ChEMBL document CHEMBL5247609, “Novel nitric oxide-releasing derivatives of pyranocarbazole as antitumor agents: Design, synthesis, biological evaluation, and nitric oxide release studies” (Eur J Med Chem, 2022) are described below.

Structures are written as SMILES. Calls of active or inactive are those of the source. No cut-off for these calls is given here.

For one assay, the system named is HeLa. In words: Antiproliferative activity against human HeLa cells assessed as reduction in cell viability after 96 hrs by MTT assay. The class given is functional, cell-based. A general note: Tetrazolium dyes change colour on reduction, which living cells bring about.
Assay [1] relates to MDA-MB-231. Briefly: Antiproliferative activity against human MDA-MB-231 cells assessed as reduction in cell viability by measuring release of nitrite at 100 uM after 180 mins by Griess reagent analysis. As to conditions: 3 h. The class given is functional.
A further assay concerns NCI-H460. Briefly: Antiproliferative activity against human H460 cells assessed as reduction in cell viability after 96 hrs by MTT assay. Format: functional, cell-based. As to conditions: NCI-H460, 96 h.
In assay [2] the test system is MDA-MB-231. In words: Antiproliferative activity against human MDA-MB-231 cells assessed as reduction in cell viability after 96 hrs by MTT assay. The class given is functional, cell-based. The following applies: MDA-MB-231, 96 h.
The subject of assay [3] is MX1. Briefly: Induction of morphological changes in human MX1 cells assessed as decrease in cell number at 5 uM measured after 24 hrs by bright field inverted microscopic analysis. Format: functional, cell-based.
The subject of assay [4] is MDA-MB-231. Briefly: Induction of morphological changes in human MDA-MB-231 cells assessed as decrease in cell number at 5 uM measured after 24 hrs by bright field inverted microscopic analysis. Format: functional, cell-based.
Assay [5] concerns MX1. Briefly: Induction of apoptosis in human MX1 cells assessed as early apoptotic cells measured at 5 uM after 48 hrs by FITC-Annexin-V and propidium iodide based flow cytometric analysis (reference value: 6.30%). Format: functional. In general terms: In flow cytometry, cells or beads pass a laser one at a time.
Assay [6] has as its system MDA-MB-231. In words: Antiproliferative activity against human MDA-MB-231 cells assessed as decrease in number of colony formation at 5 uM measured after 14 days by crystal violet staining based analysis. As to conditions: time 14.0 day. Format: functional, cell-based.
In assay [7] the test system is MDA-MB-231. Briefly: Induction of morphological changes in human MDA-MB-231 cells at 5 uM measured after 24 hrs by bright field inverted microscopic analysis. The class given is functional, cell-based.
Assay [8] has as its system MX1. Briefly: Induction of morphological changes in human MX1 cells assessed as decrease in cell size at 5 uM measured after 24 hrs by bright field inverted microscopic analysis. Format: functional, cell-based.
The subject of assay [9] is MDA-MB-231. Briefly: Induction of morphological changes in human MDA-MB-231 cells assessed as decrease in cell size at 5 uM measured after 24 hrs by bright field inverted microscopic analysis. The class given is functional, cell-based.
Assay [10] concerns MX1. In words: Induction of apoptosis in human MX1 cells assessed as viable cells measured at 5 uM after 48 hrs by FITC-Annexin-V and propidium iodide based flow cytometric analysis (reference value: 88.4%). Format: functional. The following applies: read-out: Activity.
Assay [11] has as its system MDA-MB-231. In words: Induction of apoptosis in human MDA-MB-231 cells assessed as early apoptotic cells measured at 5 uM after 48 hrs by FITC-Annexin-V and propidium iodide based flow cytometric analysis (reference value: 2.71%). Format: functional.
Assay [12] relates to MX1. Briefly: Induction of apoptosis in human MX1 cells assessed as late apoptotic cells measured at 5 uM after 48 hrs by FITC-Annexin-V and propidium iodide based flow cytometric analysis (reference value: 5.24%). Format: functional.
Assay [13] deals with MX1. In words: Induction of apoptosis in human MX1 cells assessed as necrotic cells measured at 5 uM after 48 hrs by FITC-Annexin-V and propidium iodide based flow cytometric analysis (reference value: 0.055 %). The class given is functional.
The test system of assay [14] is MDA-MB-231. In words: Induction of apoptosis in human MDA-MB-231 cells assessed as viable cells measured at 5 uM after 48 hrs by FITC-Annexin-V and propidium iodide based flow cytometric analysis (reference value: 94.4% ). The class given is functional. The following applies: read-out: Activity.
Assay [15] has as its system MX1. In words: Induction of morphological changes in human MX1 cells at 5 uM measured after 24 hrs by bright field inverted microscopic analysis. The class given is functional, cell-based.
Assay [16] relates to MDA-MB-231. Briefly: Induction of apoptosis in human MDA-MB-231 cells assessed as necrotic cells measured at 5 uM after 48 hrs by FITC-Annexin-V and propidium iodide based flow cytometric analysis (reference value: 0.253 %). The class given is functional.
In assay [17] the test system is MDA-MB-231. In words: Induction of apoptosis in human MDA-MB-231 cells assessed as late apoptotic cells measured at 5 uM after 48 hrs by FITC-Annexin-V and propidium iodide based flow cytometric analysis (reference value: 2.68%). The class given is functional.

A word on the IC50: it is the midpoint of a concentration-inhibition curve. For `CC1(C)C=Cc2c(c(/C=C/C(=O)N3CCC(CCOc4no[n+]([O-])c4S(=O)(=O)c4ccccc4)CC3)cc3c2[nH]c2ccc(C(C)(C)C)cc23)O1`, the IC50 in the assay on HeLa is 240 nM; with NCI-H460 it was 3180 nM; in the assay on MDA-MB-231 [2], 210 nM. Besides, the Nitrite release with MDA-MB-231 [1] turned out to be 19.7 µM.

For `CC1(C)C=Cc2c(c(CN3CCC(Oc4no[n+]([O-])c4S(=O)(=O)c4ccccc4)CC3)cc3c2[nH]c2ccc(C(C)(C)C)cc23)O1`, the figures for the IC50 in the assay with HeLa, with NCI-H460 and with MDA-MB-231 [2] were 1620 nM, 1390 nM and 3510 nM, respectively. In the assay on MDA-MB-231 [1], the Nitrite release came to 19.7 µM.

Turning to `CC1(C)C=Cc2c(c(CNCCOc3no[n+]([O-])c3S(=O)(=O)c3ccccc3)cc3c2[nH]c2ccc(C(C)(C)C)cc23)O1`, the IC50 in the assay with HeLa turned out to be 5340 nM; in the assay with NCI-H460, 5980 nM; with MDA-MB-231 [2], 4260 nM. Moreover, the Nitrite release in the assay with MDA-MB-231 [1] is 19.7 µM.

On to `CC1(C)C=Cc2c(c(CN3CCC(CCOc4no[n+]([O-])c4S(=O)(=O)c4ccccc4)CC3)cc3c2[nH]c2ccc(C(C)(C)C)cc23)O1`, for which the IC50 with HeLa is 1830 nM; with NCI-H460, 1960 nM; with MDA-MB-231 [2], 3500 nM. Further, in the assay with MDA-MB-231 [1], the Nitrite release stood at 19.7 µM.

Consider `CC1(C)C=Cc2c(c(CNCCCOc3no[n+]([O-])c3S(=O)(=O)c3ccccc3)cc3c2[nH]c2ccc(C(C)(C)C)cc23)O1`, for which the IC50 with HeLa was 7550 nM; in the assay on NCI-H460, 7490 nM; in the assay on MDA-MB-231 [2], 5850 nM. In the assay with MDA-MB-231 [1], the Nitrite release was found to be 19.7 µM.

Take `CC1(C)C=Cc2c(c(/C=C/C(=O)N3CCCC3COc3no[n+]([O-])c3S(=O)(=O)c3ccccc3)cc3c2[nH]c2ccc(C(C)(C)C)cc23)O1` (stereo not given): the IC50 in the assay on HeLa was found to be 240 nM; with NCI-H460, 6040 nM; in the assay with MDA-MB-231 [2] it was 380 nM. For the same molecule, the Nitrite release in the assay with MDA-MB-231 [1] was 19.7 µM.

Consider `CC1(C)C=Cc2c(c(/C=C/C(=O)N3CCC(COc4no[n+]([O-])c4S(=O)(=O)c4ccccc4)CC3)cc3c2[nH]c2ccc(C(C)(C)C)cc23)O1`, for which the results for the IC50 with HeLa, in the assay with NCI-H460 and in the assay with MDA-MB-231 [2] were 430 nM, 1360 nM and 290 nM, respectively. The Nitrite release in the assay with MDA-MB-231 [1] was 19.7 µM.

For `CC(=O)O[C@H]1C(=O)[C@@]2(C)[C@H]([C@H](OC(=O)c3ccccc3)[C@]3(O)C[C@H](OC(=O)[C@H](O)[C@@H](NC(=O)c4ccccc4)c4ccccc4)C(C)=C1C3(C)C)[C@]1(OC(C)=O)CO[C@@H]1C[C@@H]2O` [PACLITAXEL], the IC50 was found to be 6 nM in the assay on HeLa and 50 nM with MDA-MB-231 [2]. Besides, the Nitrite release with MDA-MB-231 [1] stood at 19.7 µM.

As for `CC(CNC(=O)/C=C/c1cc2c([nH]c3ccc(C(C)(C)C)cc32)c2c1OC(C)(C)C=C2)Oc1no[n+]([O-])c1S(=O)(=O)c1ccccc1` (stereo not given), the IC50 with HeLa stood at 210 nM; in the assay with NCI-H460, 990 nM; with MDA-MB-231 [2] it was 200 nM.

In the case of `CC1(C)C=Cc2c(c(/C=C/C(=O)NCCCOc3no[n+]([O-])c3S(=O)(=O)c3ccccc3)cc3c2[nH]c2ccc(C(C)(C)C)cc23)O1`, the values for the IC50 in the assay on HeLa, in the assay on NCI-H460 and with MDA-MB-231 [2] were 230 nM, 1280 nM and 180 nM, respectively. Also, the Nitrite release in the assay on MDA-MB-231 [1] amounted to 19.7 µM.

As for `CC1(C)C=Cc2c(c(/C=C/C(=O)N3CCC(Oc4no[n+]([O-])c4S(=O)(=O)c4ccccc4)CC3)cc3c2[nH]c2ccc(C(C)(C)C)cc23)O1`, the IC50 in the assay with HeLa turned out to be 1350 nM; in the assay on NCI-H460, 2680 nM; in the assay with MDA-MB-231 [2], 3520 nM.

As to `NCCOc1no[n+]([O-])c1S(=O)(=O)c1ccccc1`, the values for the IC50 in the assay on HeLa, in the assay with NCI-H460 and in the assay with MDA-MB-231 [2] were 10500 nM, 16300 nM and 12700 nM, respectively.

Turning to `CC1(C)C=Cc2c(c(CN3CCC(COc4no[n+]([O-])c4S(=O)(=O)c4ccccc4)CC3)cc3c2[nH]c2ccc(C(C)(C)C)cc23)O1`, the IC50 came to 3860 nM in the assay on HeLa, 4490 nM in the assay on NCI-H460 and 3750 nM with MDA-MB-231 [2].

For the molecule `CN1CCN(Cc2cc3c([nH]c4ccc(C(C)(C)C)cc43)c3c2OC(C)(C)C=C3)CC1`, the result with MX1 [3], in the assay with MDA-MB-231 [4], with MDA-MB-231 [6], in the assay on MDA-MB-231 [7], in the assay on MX1 [8] and with MDA-MB-231 [9] was Active. The result in the assay on MX1 [15] was Active. For the same molecule, the IC50 with HeLa was determined as 1290 nM; with NCI-H460 it was 3590 nM; in the assay with MDA-MB-231 [2], 3430 nM. Besides, the Activity with MX1 [5] is 53.8%; in the assay with MDA-MB-231 [11], 10.2%; with MX1 [12] it was 9.97%; with MX1 [13] it was 0.175%; in the assay with MDA-MB-231 [16], 0.745%; with MDA-MB-231 [17], 7.79%. Besides, the viability at 5 µM in the assay on MX1 [10] was 36%; in the assay on MDA-MB-231 [14], 81.3%.
